Laboratory results published in patent US11202850B2, “Compositions and methods for inhibiting inflammation” (THE UNIVERSITY OF MEMPHIS RESEARCH FOUNDATION, priority 2018, dated 2021).

Tests used:
PAD4 = molecular target: T1, PAD4 (Homo sapiens, UniProt Q9UM07); assay: PAD4 Inhibitor Screening Assay: Cl-amidine activity after exposure to electrospinning solvent HFP; type: biochemical
T1 construct: purchased
Text: The log transform of molarity against average fluorescent intensity was plotted for each concentration (FIG. 6).
As the concentration of drug increases, the relative fluorescence decreases, signifying an increase in the inhibition of PAD4. […] However, the drug was still active producing a sigmoidal curve similar to that of the HBSS samples.
In addition to determining the activity of Cl—Am, the samples exposed to HFP were used to create a standard curve for quantifying unknown Cl—Am concentrations. The four-parameter logistic regression of the HFP exposed samples (Equation 1, x=logarithmic transform of Cl—Am concentration and y=relative fluorescence) has an R2-value of 0.996, and there is no evidence of an inadequate model from the lack of fit test (p=0.28).
Lower fluorescence indicated greater inhibition of PAD4. No evidence of lack of fit (p=0.28) was found for the four-parameter regression of HFP exposed samples. […] This provided a standard curve for quantifying unknown Cl-amidine from elution studies.

[1] = system: fresh human peripheral blood neutrophils; assay: NETosis on Cl-amidine eluting templates in vitro (DAPI/SYTOX Green BG ratio); type: cell-based
Procedure: 10 mm diameter punches of the templates (n=4) were placed in a 48-well culture plate and disinfected by UV irradiation. Isolated peripheral neutrophils from whole blood were suspended in sterile HBSS and used to seed templates with 600,000 cells in 250 μL of HBSS and cultured for 3 and 6 hours under standard conditions. Cellularized templates were then fixed in 10% buffered formalin and fluorescence quantification of NETs was carried out. Templates with 100 nM SYTOX Green for extracellular DNA followed by DAPI fixed cell nuclei stain at stock concentration (FIGS. 9A, 9B, 10A, 10B, and 11A). The ratio of DAPI (blue) to SYTOX green (BG ratio) pixels per image using MATLAB 2012a was quantified to determine degree of NETosis (FIGS. 12A and 12B).
Infrared scanning and quantification of citrullinated histone H3 (CitH3) was carried out as follows. Templates were incubated with rabbit anti-human histone H3 (citrulline R2+R8+R17) antibody (ABCAM) followed by IRDye 800CW donkey anti-rabbit secondary antibody. The templates were scanned on the 800-nm channel of the Odyssey CLx Infrared Imaging System (LICOR) to generate full-thickness template fluorescence. Template-bound CitH3 was quantified with standard curve of CitH3 vacuum blotted onto a PVDF membrane. Statistical analysis was carried out as follows. […] Then the plot of relative fluorescence against mass of CitH3 was fit with a linear regression. […]

T1 sequence (Q9UM07 whole entry, species assumed): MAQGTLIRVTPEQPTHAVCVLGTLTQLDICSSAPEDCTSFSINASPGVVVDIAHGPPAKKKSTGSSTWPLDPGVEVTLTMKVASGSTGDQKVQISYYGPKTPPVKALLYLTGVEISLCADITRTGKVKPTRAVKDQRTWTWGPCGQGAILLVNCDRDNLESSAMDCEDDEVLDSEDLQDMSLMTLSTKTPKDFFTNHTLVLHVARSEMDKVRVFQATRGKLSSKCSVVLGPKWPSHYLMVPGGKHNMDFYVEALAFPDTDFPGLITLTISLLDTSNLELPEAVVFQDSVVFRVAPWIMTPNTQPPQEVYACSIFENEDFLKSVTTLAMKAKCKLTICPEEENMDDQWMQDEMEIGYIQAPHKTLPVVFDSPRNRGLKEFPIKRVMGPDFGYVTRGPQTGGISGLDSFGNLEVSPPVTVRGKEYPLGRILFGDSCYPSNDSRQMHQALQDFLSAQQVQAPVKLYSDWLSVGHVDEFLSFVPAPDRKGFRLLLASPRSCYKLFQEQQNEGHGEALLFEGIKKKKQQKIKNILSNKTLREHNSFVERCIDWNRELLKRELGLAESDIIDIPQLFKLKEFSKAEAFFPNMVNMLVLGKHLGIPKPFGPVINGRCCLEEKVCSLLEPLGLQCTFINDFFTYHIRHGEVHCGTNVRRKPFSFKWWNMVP

lowest concentration inhibiting PAD4 activity (PAD4; after exposure to HFP): 1.2 µM
efficacy after exposure to solvent HFP (PAD4; sigmoidal curve similar to HBSS samples): retained efficacy after exposure to HFP
SMILES: N=C(CCl)NCCCC(NC(=O)c1ccccc1)C(N)=O [Cl-amidine, N-α-benzoyl-N5-(2-chloro-1-iminoethyl)-L-ornithine amide]
activity against PAD4 after exposure to HFP versus HBSS samples (PAD4; at two concentrations, 5.9 and 29.5 μM (p<0.0001)): significantly reduced its activity against PAD4
effect of eluted Cl-amidine on NETosis ([1]; on large diameter templates, 3 hours): opposite trend
effect of eluted Cl-amidine on NETosis ([1]; on small diameter templates, 3 hours (p<0.05)): significantly attenuated NETosis
